Source: publication PMC8504577, “Evaluation of a Clinically Relevant Drug–Drug Interaction Between Rosuvastatin and Clopidogrel and the Risk of Hepatotoxicity” (Frontiers in Pharmacology, 2021)
“Also recorded” adds a separate entry of the source. Where two headings read alike, the source gives them in different places.

Tests used:
OATP1B1 [1] = molecular target: T1, OATP1B1 (Homo sapiens, UniProt Q9Y6L6); test: cell-based
T1 sequence (Q9Y6L6 1-691): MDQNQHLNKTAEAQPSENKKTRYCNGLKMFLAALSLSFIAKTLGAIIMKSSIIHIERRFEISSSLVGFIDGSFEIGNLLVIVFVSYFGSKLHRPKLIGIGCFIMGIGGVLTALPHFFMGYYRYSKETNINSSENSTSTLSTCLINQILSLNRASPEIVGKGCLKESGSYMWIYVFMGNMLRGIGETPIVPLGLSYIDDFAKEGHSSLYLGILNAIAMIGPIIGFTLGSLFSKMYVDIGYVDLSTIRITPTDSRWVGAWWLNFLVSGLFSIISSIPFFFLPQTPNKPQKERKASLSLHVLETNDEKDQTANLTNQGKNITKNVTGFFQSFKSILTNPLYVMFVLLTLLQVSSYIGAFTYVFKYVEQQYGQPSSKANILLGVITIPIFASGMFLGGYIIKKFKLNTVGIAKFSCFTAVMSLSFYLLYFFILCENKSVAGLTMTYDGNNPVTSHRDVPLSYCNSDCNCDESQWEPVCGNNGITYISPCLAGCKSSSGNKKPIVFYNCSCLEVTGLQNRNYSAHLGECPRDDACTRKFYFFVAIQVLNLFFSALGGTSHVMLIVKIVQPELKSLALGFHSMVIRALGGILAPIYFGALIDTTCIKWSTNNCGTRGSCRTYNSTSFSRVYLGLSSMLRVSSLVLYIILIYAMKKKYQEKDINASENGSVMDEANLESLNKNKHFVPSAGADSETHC
Procedure: (§1) The OATP1B1, OATP1B3, and mock cells were cultured in the DMEM medium containing 10% fetal bovine serum, penicillin–streptomycin solution (100 U/mL and 0.1 mg/ml), and 0.5 mg/ml geneticin at 37°C in the presence of 5% CO2. The cells were seeded in a 24-well plate at a density of 4×10^5 cells/well and grown for 80–90% confluence. […] After washing the cells three times with transporter buffer at 4°C, the cells were lysed with liquid nitrogen. The lysates were precipitated with methanol and centrifuged at 12,000 rpm at 4°C for 5 min. The supernatant was analyzed by LC-MS/MS. Protein concentration was determined using the Pierce® BCA Protein Assay Kit. All experiments were performed in triplicate.
(§2) Phoenix WinNonlin® 7.1 (Pharsight Corporation, Mountain View, CA, United States) was used to calculate the pharmacokinetic parameters by the noncompartmental method. IC50 values were obtained by a computer-generated nonlinear least squares fit using GraphPad Prism 8.1 (GraphPad Software, San Diego, CA, United States). Statistical analysis was performed using SPSS ver. 22.0 (IBM, Chicago, IL, United States). The results are presented as mean ± S.D., unless otherwise stated. After testing for the homogeneity of variance, statistical analysis was performed with a one-way ANOVA followed by the LSD post hoc test or unpaired Student’s t-test. A probability (p) of less than 0.05, 0.01, and 0.001 was considered to be statistically significant, highly significant, and extremely significant, respectively.

OATP1B3 = molecular target: T2, OATP1B3 (Homo sapiens, UniProt Q9NPD5); test: cell-based
T2 sequence (Q9NPD5 1-702): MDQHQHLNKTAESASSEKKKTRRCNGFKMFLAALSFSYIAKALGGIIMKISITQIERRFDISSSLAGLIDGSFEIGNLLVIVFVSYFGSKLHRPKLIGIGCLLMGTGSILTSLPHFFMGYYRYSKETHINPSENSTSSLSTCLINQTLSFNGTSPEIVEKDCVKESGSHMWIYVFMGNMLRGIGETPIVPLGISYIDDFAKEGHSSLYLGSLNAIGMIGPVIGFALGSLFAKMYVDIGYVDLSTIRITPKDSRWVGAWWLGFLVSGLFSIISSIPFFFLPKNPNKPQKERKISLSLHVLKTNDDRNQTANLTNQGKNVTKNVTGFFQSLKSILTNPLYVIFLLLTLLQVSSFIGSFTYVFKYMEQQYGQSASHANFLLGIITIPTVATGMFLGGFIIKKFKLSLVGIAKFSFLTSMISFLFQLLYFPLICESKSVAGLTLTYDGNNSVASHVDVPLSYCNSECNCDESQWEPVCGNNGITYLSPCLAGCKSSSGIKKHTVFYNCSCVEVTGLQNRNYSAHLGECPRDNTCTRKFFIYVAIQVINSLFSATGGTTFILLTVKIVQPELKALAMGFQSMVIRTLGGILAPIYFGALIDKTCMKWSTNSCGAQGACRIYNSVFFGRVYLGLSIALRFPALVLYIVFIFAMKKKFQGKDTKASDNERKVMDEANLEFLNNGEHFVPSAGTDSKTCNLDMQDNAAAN
Procedure: as §1, §2

OATP1B1 [2] = settings: cited from earlier work
BCRP = settings: read-out: IC50 BCRP; BCRP-mediated RSV transport, membrane vesicles; ref Varma et al. (2019); cited from earlier work
[3] = cited from earlier work; for I1, peak plasma concentration at steady state: ref Itkonen et al. (2015)
OATP1B1 [4] = system: OATP1B1; design: method as in Elsby et al., 2016; settings: ref Elsby et al., 2016; cited from earlier work
[5] = human, ref Pinheiro et al., 2012, Remsberg et al., 2013, cited from earlier work
[6] = in 5 days after p.o. administration, ref Sanofi-Aventis, 2011

Compound | IC50 (OATP1B1 [1]) [µM] | IC50 (OATP1B3) [µM] | Inhibition of OATP1B3-mediated RSV transport (OATP1B3; 1 μM RSV, CPC 0.05–50 μM) | IC50 (OATP1B1 [2]; substrate cerivastatin, ref Tamraz et al. (2013), read-out: IC50 OTAP1B1 (cerivastatin, CER, as substrate)) [µM] | IC50 (OATP1B1 [2]; substrate estradiol 17β-glucuronide, ref Elsby et al. (2016), read-out: IC50 OTAP1B1 (estradiol 17β-glucuronide, e17βG, as substrate)) [µM] | IC50 (BCRP) [µM] | I1, peak plasma concentration at steady state ([3]; 75 mg CP) | I1, peak plasma concentration at steady state ([3]; 300 mg CP) | Absorbed CP converted into inactive carboxylic acid metabolites (CPC) by CES1 in the liver ([3]; at least, ref Jiang et al., 2015) | Excreted as inactive metabolites via feces [3, 6] [%] | Excreted as inactive metabolites via urine [3, 6] [%] | CP undergoing two-step oxidization by CYP enzymes to active metabolite ([3]; ref Jiang et al., 2015) | Elimination half-life ([3]; ref Sanofi-Aventis, 2011) [h] | Individual contribution of OATP1B1 to hepatic uptake (OATP1B1 [4]) | Increase of RSV AUC with concomitant CP ([5]; 20 mg RSV) [fold] | Increase of RSV Cmax with concomitant CP ([5]; 20 mg RSV) [fold] | Increase of RSV AUC with concomitant CP ([5]; 40 mg RSV) [fold] | Increase of RSV Cmax with concomitant CP ([5]; 40 mg RSV) [fold]
COC(=O)[C@H](c1ccccc1Cl)N1CCc2sccc2C1 [CP, clopidogrel] | 27.4 | > 50 | did not inhibit; also recorded: did not affect | 3.95 | 1.8 | 104 | 0.0010 [Itkonen et al. (2015)] μM | 0.0089 [Itkonen et al. (2015)] μM | 85–90% | ~46 | ~50 | About 2% | 6 |  |  |  |  | 
CC(C)c1nc(N(C)S(C)(=O)=O)nc(-c2ccc(F)cc2)c1/C=C/[C@@H](O)C[C@@H](O)CC(=O)O [RSV, rosuvastatin] |  |  |  |  |  |  |  |  |  |  |  |  |  | 0.38 | 2.0 | 2.2 | 1.7 | 1.3
